This assay has as its system HepG2 hepatocytes tissue layers. The experiment in a line: Live cell viability / CEIS recordings in the presence of a cytotoxic agent (EtOH). Conditions: 12 hour exposure to EtOH (70% final); HEPG2 2 million cells/mL with PEG-PLL (1:10) hydrogel. The class given is cell-based, human. How it is done:
A toxicological agent, Ethanol (EtOH) was used as a clinically relevant cytotoxic agent for the HepG2 hepatocytes tissue layers, HEPG2 (2 million cells/mL) with PEG-PLL (1:10) hydrogel. CEIS recordings were obtained at 1 hour and 24 hours post deposition with and without the cytoxic agent, Table 3. A final CEIS recording was obtained from these cells following a 12 hour exposure to EtOH (70% final). A marked increase in amplitude with additional recovery time post deposition (1 vs 24 hours).

For the compound `CCO` [EtOH, Ethanol], the “amplitude of CEIS recordings” value is given as “increased the observed amplitude of CEIS recordings”.

For the origin of these results see patent US20230346281A1, “Fully Printed Electrode Biological Interface” (Early Charm Ventures, priority 2022, published 2023).
